Active and inactive are the calls of the source. Cut-off read from the data, not from the text of the source, for most assays here: actives have a measured EC50 and inactives only a lower limit. Where only a bound is given, the exact number is not on record here.

Consider 22 compounds from ChEMBL document CHEMBL1201862, “PubChem BioAssay data set” (2004).

One assay has as its system Streptococcus. Put plainly: GAS UMAA2166 growth inhibition – luminescence, BacTiterGlo, counter-screen for streptokinase expression inhibitor project, dose response (AID 1915).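 Note: potency for reduction of bacterial viability or growth.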 Type of assay: functional, organism-based. The settings on record: read-out: EC50.
A further assay has as its target T1, Streptokinase A (Streptococcus pyogenes serotype M1, UniProt P10520).
T1 sequence (P10520 whole entry): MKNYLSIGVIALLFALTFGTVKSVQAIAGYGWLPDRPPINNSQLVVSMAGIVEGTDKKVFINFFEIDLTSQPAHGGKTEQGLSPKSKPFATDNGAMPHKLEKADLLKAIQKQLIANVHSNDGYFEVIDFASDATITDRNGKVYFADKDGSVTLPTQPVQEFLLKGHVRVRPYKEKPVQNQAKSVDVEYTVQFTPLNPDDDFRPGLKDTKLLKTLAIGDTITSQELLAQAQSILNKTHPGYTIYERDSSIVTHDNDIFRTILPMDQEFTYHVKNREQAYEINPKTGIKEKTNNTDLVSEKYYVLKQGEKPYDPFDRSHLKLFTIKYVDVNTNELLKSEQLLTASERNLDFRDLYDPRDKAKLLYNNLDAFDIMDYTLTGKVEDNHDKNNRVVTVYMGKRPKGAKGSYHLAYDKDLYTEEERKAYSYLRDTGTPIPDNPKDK
Put plainly: viability-normalized secreted streptokinase activity reduction – plasminogen activation absorbance, OD405, dose response (AID 1914).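 Note: secreted streptokinase activity via plasminogen activation per viability signal from cell pellet.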 It counts as functional, Streptococcus pyogenes M1 GAS.

The test system of assay [1] is Streptococcus sp. 'group A'. Put plainly: Streptococcus pyogenes SK(-)GAS viability under kanamycin – luminescence, BacTiterGlo, confirmation, counter-screen for streptokinase expression inhibitor project, dose response (AID 1900). It counts as functional, organism-based.
In assay [2] the target is T2, Corticotropin-releasing factor receptor 2/Corticotropin-releasing factor-binding protein (Homo sapiens, UniProt P24387+Q13324).
T2 sequence (Q13324 whole entry): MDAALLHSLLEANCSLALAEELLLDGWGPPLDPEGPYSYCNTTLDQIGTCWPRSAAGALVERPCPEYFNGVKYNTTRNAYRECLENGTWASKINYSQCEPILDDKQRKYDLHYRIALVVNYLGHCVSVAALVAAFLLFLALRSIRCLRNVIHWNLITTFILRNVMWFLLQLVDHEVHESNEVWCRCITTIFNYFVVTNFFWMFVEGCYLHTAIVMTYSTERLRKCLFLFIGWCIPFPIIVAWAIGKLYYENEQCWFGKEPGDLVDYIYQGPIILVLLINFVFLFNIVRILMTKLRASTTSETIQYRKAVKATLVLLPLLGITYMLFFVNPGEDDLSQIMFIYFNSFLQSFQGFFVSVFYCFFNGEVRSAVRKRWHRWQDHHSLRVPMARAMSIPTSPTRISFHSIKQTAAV
T2 sequence (P24387 whole entry): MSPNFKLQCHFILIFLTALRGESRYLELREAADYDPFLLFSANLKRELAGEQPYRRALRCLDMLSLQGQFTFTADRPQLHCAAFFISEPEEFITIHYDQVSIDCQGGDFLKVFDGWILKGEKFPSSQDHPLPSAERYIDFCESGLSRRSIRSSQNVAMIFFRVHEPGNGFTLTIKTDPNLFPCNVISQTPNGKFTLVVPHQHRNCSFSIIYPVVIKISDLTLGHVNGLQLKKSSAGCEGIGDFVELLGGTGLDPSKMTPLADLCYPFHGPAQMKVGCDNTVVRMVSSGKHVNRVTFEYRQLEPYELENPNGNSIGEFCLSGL
Description: activators of CRF receptor 2 with binding protein – uHTS hits, confirmation (AID 602473). It counts as functional. The settings on record: read-out: EC50_Mean.

The next assay concerns the target Cytochrome P450 2D6 (Homo sapiens, UniProt P10635).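 Note: CYP2D6 member of a cytochrome P450 panel assay.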
Assay [3] can be described thus: Luminescence Cell-Based Dose Retest to Confirm Inhibitors of Cancer Stem Cells. [Related pubchem assays (depositor defined):AID2717, AID2721]. Type of assay: functional. The conditions noted are these: Homo sapiens.
The next assay has as its target T3, Protein RecA (Mycobacterium tuberculosis, UniProt P9WHJ3).
T3 sequence (P9WHJ3 whole entry): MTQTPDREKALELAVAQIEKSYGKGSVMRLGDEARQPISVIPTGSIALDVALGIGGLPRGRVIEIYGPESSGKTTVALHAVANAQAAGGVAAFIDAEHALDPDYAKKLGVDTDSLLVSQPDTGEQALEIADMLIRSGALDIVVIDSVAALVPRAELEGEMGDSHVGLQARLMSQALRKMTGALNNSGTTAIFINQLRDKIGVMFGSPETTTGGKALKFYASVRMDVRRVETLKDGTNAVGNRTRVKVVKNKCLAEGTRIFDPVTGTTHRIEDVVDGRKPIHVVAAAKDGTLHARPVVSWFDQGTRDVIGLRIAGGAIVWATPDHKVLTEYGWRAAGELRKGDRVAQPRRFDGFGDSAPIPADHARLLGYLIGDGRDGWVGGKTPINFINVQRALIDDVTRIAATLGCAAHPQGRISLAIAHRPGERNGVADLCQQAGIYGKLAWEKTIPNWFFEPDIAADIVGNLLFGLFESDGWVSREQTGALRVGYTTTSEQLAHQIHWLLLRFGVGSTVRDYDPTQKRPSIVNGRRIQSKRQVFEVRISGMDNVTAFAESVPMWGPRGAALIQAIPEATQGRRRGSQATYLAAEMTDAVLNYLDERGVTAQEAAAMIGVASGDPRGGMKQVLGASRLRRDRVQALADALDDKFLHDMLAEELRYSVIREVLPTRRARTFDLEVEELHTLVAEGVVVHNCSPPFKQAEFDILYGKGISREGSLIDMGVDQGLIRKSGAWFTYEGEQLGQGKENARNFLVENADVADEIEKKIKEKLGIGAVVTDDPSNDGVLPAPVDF
Description: Fluorescence Cell-Free Homogeneous Dose Retest to Identify Inhibitors of RecA-Intein Splicing Activity. [Related pubchem assays (depositor defined):AID2097, AID2223, AID489010, AID492950]. Type of assay: functional.

The target of assay [4] is T4, Replicative DNA helicase DnaB (Mycobacterium tuberculosis, UniProt P9WMR3).
T4 sequence (P9WMR3 whole entry): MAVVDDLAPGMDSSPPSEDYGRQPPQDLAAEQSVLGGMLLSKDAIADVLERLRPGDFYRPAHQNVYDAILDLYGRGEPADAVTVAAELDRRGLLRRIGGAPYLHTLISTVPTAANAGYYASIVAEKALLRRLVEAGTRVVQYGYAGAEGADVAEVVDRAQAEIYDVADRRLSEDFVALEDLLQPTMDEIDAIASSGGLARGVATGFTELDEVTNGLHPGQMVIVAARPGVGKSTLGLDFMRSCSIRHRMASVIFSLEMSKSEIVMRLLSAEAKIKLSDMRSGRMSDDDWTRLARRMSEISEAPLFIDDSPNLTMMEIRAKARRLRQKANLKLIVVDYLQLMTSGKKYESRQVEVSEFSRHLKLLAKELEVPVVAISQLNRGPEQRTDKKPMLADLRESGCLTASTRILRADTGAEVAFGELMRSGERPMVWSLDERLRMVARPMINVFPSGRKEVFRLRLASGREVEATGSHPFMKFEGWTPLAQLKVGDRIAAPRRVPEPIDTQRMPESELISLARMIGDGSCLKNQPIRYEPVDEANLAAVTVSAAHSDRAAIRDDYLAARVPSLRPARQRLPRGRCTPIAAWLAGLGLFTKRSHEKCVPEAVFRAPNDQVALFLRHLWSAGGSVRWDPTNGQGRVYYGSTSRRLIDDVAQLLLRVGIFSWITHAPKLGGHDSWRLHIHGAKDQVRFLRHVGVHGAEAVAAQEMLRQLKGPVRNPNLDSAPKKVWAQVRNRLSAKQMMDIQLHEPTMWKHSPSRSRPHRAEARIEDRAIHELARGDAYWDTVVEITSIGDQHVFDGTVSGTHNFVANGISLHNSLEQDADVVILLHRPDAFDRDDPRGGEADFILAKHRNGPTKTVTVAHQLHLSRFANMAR
Put plainly: DnaB intein splicing inhibitors, dose response, biochemical, cell-free fluorescence (AID 449749). Type of assay: functional.

Assay [5] in a line: reduction of Shn3 3'UTR-driven luciferase in osteoblasts – cell-based, Clone20 osteoblasts, firefly luciferase, cherry-picked, dose response (AID 624132).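 Note: firefly luciferase luminescence from reporter carrying the Shn3 3'UTR in osteoblasts.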 It counts as functional.
In assay [6] the target is T5, Heat shock factor protein 1 (Mus musculus, UniProt P38532).
T5 sequence (P38532 whole entry): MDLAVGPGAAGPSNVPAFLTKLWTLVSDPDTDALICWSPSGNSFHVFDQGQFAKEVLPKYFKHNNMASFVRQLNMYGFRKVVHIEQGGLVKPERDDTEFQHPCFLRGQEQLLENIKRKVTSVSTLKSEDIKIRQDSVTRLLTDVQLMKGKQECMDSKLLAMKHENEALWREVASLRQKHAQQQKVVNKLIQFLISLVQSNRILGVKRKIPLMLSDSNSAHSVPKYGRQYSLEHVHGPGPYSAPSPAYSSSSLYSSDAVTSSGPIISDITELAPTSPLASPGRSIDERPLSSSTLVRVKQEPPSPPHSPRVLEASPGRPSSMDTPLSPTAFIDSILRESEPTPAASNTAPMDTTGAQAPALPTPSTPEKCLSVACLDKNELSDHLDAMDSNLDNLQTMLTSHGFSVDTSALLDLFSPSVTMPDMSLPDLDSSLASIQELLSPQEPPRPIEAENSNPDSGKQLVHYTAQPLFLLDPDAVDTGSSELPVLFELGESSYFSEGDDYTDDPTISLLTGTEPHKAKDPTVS
Put plainly: decrease of HSF1-responsive luciferase luminescence – cell-based, NIH3T3, dose retest, confirmation (AID 2382).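 Note: NIH3T3 fibroblasts with HSF1-driven luciferase reporter stressed by proteasome inhibitor MG132; luminescence from HSF1-driven luciferase expression after 8 hours of MG132 stress.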 Type of assay: functional.

Chain of Cytochrome P450 2D6 (P10635 whole entry): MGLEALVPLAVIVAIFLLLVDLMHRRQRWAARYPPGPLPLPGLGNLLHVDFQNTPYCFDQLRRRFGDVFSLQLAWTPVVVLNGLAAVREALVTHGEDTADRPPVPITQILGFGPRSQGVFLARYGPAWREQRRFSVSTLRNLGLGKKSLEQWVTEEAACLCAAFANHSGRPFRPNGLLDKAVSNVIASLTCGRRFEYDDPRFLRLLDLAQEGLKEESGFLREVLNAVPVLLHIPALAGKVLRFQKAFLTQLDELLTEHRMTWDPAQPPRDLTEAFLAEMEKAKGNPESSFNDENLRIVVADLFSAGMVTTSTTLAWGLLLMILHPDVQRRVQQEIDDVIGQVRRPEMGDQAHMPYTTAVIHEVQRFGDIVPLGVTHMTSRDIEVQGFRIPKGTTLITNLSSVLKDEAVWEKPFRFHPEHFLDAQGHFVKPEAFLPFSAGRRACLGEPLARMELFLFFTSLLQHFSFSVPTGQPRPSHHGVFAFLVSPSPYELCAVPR

`Cc1cccc(Cc2cnc(NC(=O)c3ccc(C)o3)s2)c1`: the results for the EC50 (in the assay with Streptococcus; at Streptokinase A; in assay [1]) were > 150 µM (not active), > 150 µM (not active) and 16.6 µM (active), respectively.

Turning to `Cn1c(=O)c(C(=O)COc2ccc(C#N)cc2)c(N)n(Cc2ccccc2)c1=O`, the EC50 in assay [2] is 10.9 µM (active).

Take `CN1CCN(c2ncc3nc(-c4ccccc4)c(=O)n(CCc4ccccc4)c3n2)CC1`: the AC50 at Cytochrome P450 2D6 is 39.8 µM (inconclusive).

Turning to `Oc1nc(CN2CC=C(c3ccccc3)CC2)nc2scc(-c3ccccc3)c12`, the AC50 in [3] is 2.56 µM (active). Moreover, the EC50 is 50.3 µM (active) in the assay with Streptococcus, > 150 µM (not active) on Streptokinase A and 7.76 µM (active) in [1].

Take `CCN(CC)S(=O)(=O)c1ccc(NN=C(C#N)C#N)cc1`: the EC50 on Protein RecA was 15 µM (active). The concentration at half-maximal activity (AC50) in assay [4] was 5.03 µM (active).

For `COc1ccc2cc(C(=O)NCc3ccccc3)/c(=N/c3ccc(C(=O)O)cc3)oc2c1`, the values for the EC50 (with Streptococcus; at Streptokinase A; in assay [1]) were 22.4 µM (active), > 150 µM (not active) and 10.2 µM (active), respectively.

As to `COc1ccc(-c2csc(Nc3ccc(O)cc3)n2)cc1`, the EC50 on Protein RecA is 123 µM (active). Besides, in assay [4], the AC50 is 37.2 µM (active).

For the compound `O=C(NC1C(=O)NNC1c1ccc(Cl)cc1)c1ccc(F)cc1` (stereo not drawn), the EC50 on Protein RecA is 4.94 µM (active). Moreover, the AC50 in [4] was 13.1 µM (active).

As for `CC1=NNC(=O)C1C(c1cccc(O)c1)C(C#N)C#N` (stereo not drawn), the EC50 at Protein RecA is 12.7 µM (active). In [4], the concentration at half-maximal activity (AC50) was 28.3 µM (active).

Consider `C[C@]12CC[C@@H](O)C[C@@H]1CC[C@@H]1[C@@H]2CC[C@]2(C)C(=O)CC[C@@H]12` [ANDROSTERONE], for which the AC50 in assay [5] is 40.1 µM (active).

Take `Cn1c(-[n+]2c(-c3ccccc3)cc(-c3ccccc3)cc2-c2ccccc2)nc2c([N+](=O)[O-])cccc21`: the EC50 at Protein RecA is 15.3 µM (active). Besides, the AC50 in assay [4] is 15.3 µM (active).

Regarding `O=C(Nc1ccc(Cl)c(Cl)c1)N1CC=C(c2ccccc2)CC1`, the EC50 in the assay on Streptococcus is 21 µM (active); at Streptokinase A, 11.9 µM (active); in assay [1] it was 9.92 µM (active).

For `O=C(/C=C/c1ccco1)NC(=S)Nc1ccc(N2CCOCC2)c(Cl)c1`, the EC50 in the assay with Streptococcus is 54.4 µM (active); at Streptokinase A, > 150 µM (not active); in assay [1] it was 109 µM (active).

As to `O=C(Nc1ccccc1)c1ccccc1NC(=O)C(F)(F)F`, in assay [2], the EC50 was > 53 µM (inactive).

With `CC(=O)NC(=S)c1c(N)n(Cc2ccccc2)c(=O)n(C)c1=O`, at Protein RecA, the EC50 was > 380 µM (inconclusive). The AC50 in [4] is > 380 µM (inactive).

For `Cc1cc(C)c(-c2cc(NC(=O)COC(=O)c3ccc(CO)cc3)n(-c3ccccc3)n2)cc1C`, the EC50 with Streptococcus is 32.4 µM (active); at Streptokinase A it was 48.4 µM (active); in assay [1] it was 5.49 µM (active).

Regarding `CC(=O)c1c(C)c2c(n1CCN(C)C)CCCC2`, the EC50 in [2] was 2.74 µM (active).

With `Cc1cc(NC(=O)CC2CCCC2)n(-c2nc3ccccc3[nH]2)n1`, the figures for the EC50 (in the assay with Streptococcus; on Streptokinase A; in assay [1]) were > 150 µM (not active), > 150 µM (not active) and 6.41 µM (active), respectively.

As to `COc1ccc(C(=O)NNC(=O)c2cccc(S(=O)(=O)N3CCOCC3)c2)cc1`, the concentration at half-maximal activity (AC50) in [5] is 23.2 µM (active).

With `Cc1cc(C(=O)c2ccccc2)c(NC(=O)CCl)s1`, the EC50 at Protein RecA was 2.83 µM (active). In addition, in assay [4], the concentration at half-maximal activity (AC50) was 14.2 µM (active).

With `c1ccc(-c2oc3ncnc(NCCCn4ccnc4)c3c2-c2ccccc2)cc1`, the figures for the EC50 (with Streptococcus; on Streptokinase A; in assay [1]) were > 150 µM (not active), > 150 µM (not active) and 23.4 µM (active), respectively.

Turning to `CCOc1cc(C(c2c(C)n[nH]c2O)c2c(C)n[nH]c2O)cc(Br)c1OC`, the EC50 on Protein RecA is 0.231 µM (active); in assay [6] it was > 195 µM (not active). Besides, the concentration at half-maximal activity (AC50) in assay [4] was 0.417 µM (active).
